Results: ChEMBL document CHEMBL1201862, “PubChem BioAssay data set” (2004)
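Test compounds were applied to cells in 96-well plates for 48 hours at 5 doses. Here, GI50 denotes the concentration required for 50% inhibition of growth.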 Active and inactive are the calls of the source. No stated cut-off is given here; in the data, active = GI50 up to about 1.1 µM and inactive = higher.

Experiments:
Experiment in all cases: DTP human tumour cell line panel, 48 h
[1] = tested on: 786-0
[2] = tested on: A498
[3] = tested on: A549
[4] = tested on: ACHN
[5] = tested on: CAKI-1
[6] = tested on: CCRF-CEM
[7] = tested on: COLO 205
[8] = tested on: DMS-114
[9] = tested on: DMS-273
[10] = tested on: EKVX
[11] = tested on: HCC 2998
[12] = tested on: HCT-116
[13] = tested on: HCT-15
[14] = tested on: HL-60
[15] = tested on: HOP-18
[16] = tested on: HOP-62
[17] = tested on: HOP-92
[18] = tested on: HT-29
[19] = tested on: IGROV-1
[20] = tested on: K562
[21] = tested on: KM-20L2
[22] = tested on: KM12
[23] = tested on: LOX IMVI
[24] = tested on: LXFL 529
[25] = tested on: M14
[26] = tested on: M19-MEL
[27] = tested on: MOLT-4
[28] = tested on: Malme-3M
[29] = tested on: NCI-H226
[30] = tested on: NCI-H23
[31] = tested on: NCI-H460
[32] = tested on: NCI-H522
[33] = tested on: OVCAR-3
[34] = tested on: OVCAR-4
[35] = tested on: OVCAR-5
[36] = tested on: OVCAR-8
[37] = tested on: RPMI-8226
[38] = tested on: RXF 393
[39] = tested on: RXF 631
[40] = tested on: SF-268
[41] = tested on: SF-295
[42] = tested on: SF-539
[43] = tested on: SK-MEL-28
[44] = tested on: SK-MEL-2
[45] = tested on: SK-MEL-5
[46] = tested on: SK-OV-3
[47] = tested on: SN12C
[48] = tested on: SNB-19
[49] = tested on: SNB-75
[50] = tested on: SNB-78
[51] = tested on: SR
[52] = tested on: SW-620
[53] = tested on: TK-10
[54] = tested on: U-251
[55] = tested on: UACC-257
[56] = tested on: UACC-62
[57] = tested on: UO-31
[58] = tested on: XF498
[59] = tested on: DLD-1

In the case of COC(=O)C(Cc1nc2ccc(Cl)cc2nc1O)/C(=N/NC(N)=O)C(=O)Nc1ccc(Cl)cc1 (stereo unspecified), the GI50 [1] is reported as > 100 µM (inactive), the GI50 [2] is reported as > 100 µM (inactive) and the GI50 [3] is reported as > 100 µM (inactive). For the same molecule, the GI50 [4] was > 100 µM (inactive), the GI50 [5] was > 100 µM (inactive) and the GI50 [6] was > 100 µM (inactive). The GI50 [7] was > 100 µM (inactive), the GI50 [8] was > 100 µM (inactive) and the GI50 [9] was > 100 µM (inactive). For the same molecule, the GI50 [10] was 20.4 µM (inactive), the GI50 [11] was > 100 µM (inactive) and the GI50 [12] was > 100 µM (inactive). For the same molecule, the GI50 [13] was over 100 µM, the GI50 [14] was > 100 µM (inactive) and the GI50 [15] was > 100 µM (inactive). For the same molecule, the GI50 [16] was > 100 µM (inactive), the GI50 [17] was > 100 µM (inactive) and the GI50 [18] was > 100 µM (inactive). The GI50 [19] was > 100 µM (inactive), the GI50 [20] was > 100 µM (inactive) and the GI50 [21] was > 100 µM (inactive). For the same molecule, the GI50 [22] was > 100 µM (inactive), the GI50 [23] was > 100 µM (inactive) and the GI50 [24] was > 100 µM (inactive). For the same molecule, the GI50 [25] was > 100 µM (inactive), the GI50 [26] was > 100 µM (inactive) and the GI50 [27] was > 100 µM (inactive). The GI50 [28] was > 100 µM (inactive), the GI50 [29] was > 100 µM (inactive) and the GI50 [30] was > 100 µM (inactive). The GI50 [31] was > 100 µM (inactive), the GI50 [32] was > 100 µM (inactive) and the GI50 [33] was > 100 µM (inactive). For the same molecule, the GI50 [34] was > 100 µM (inactive), the GI50 [35] was > 100 µM (inactive) and the GI50 [36] was > 100 µM (inactive). For the same molecule, the GI50 [37] was > 100 µM (inactive), the GI50 [38] was > 100 µM (inactive) and the GI50 [39] was > 100 µM (inactive). For the same molecule, the GI50 [40] was > 100 µM (inactive), the GI50 [41] was > 100 µM (inactive) and the GI50 [42] was > 100 µM (inactive). The GI50 [43] was > 100 µM (inactive), the GI50 [44] was > 100 µM (inactive) and the GI50 [45] was > 100 µM (inactive). The GI50 [46] was > 100 µM (inactive), the GI50 [47] was > 100 µM (inactive) and the GI50 [48] was > 100 µM (inactive). For the same molecule, the GI50 [49] was > 100 µM (inactive), the GI50 [50] was > 100 µM (inactive) and the GI50 [51] was > 100 µM (inactive). For the same molecule, the GI50 [52] was > 100 µM (inactive), the GI50 [53] was > 100 µM (inactive) and the GI50 [54] was > 100 µM (inactive). The GI50 [55] was > 100 µM (inactive), the GI50 [56] was > 100 µM (inactive) and the GI50 [57] was > 100 µM (inactive). The GI50 [58] was > 100 µM (inactive).
For C=C1c2c(cc3c(c2O)c(=O)c2ccccc2n3C)OC1(C)C, the GI50 [2] was 30.9 µM (inactive), the GI50 [4] was 46.9 µM (inactive) and the GI50 [5] was > 100 µM (inactive). For the same molecule, the GI50 [6] was > 100 µM (inactive), the GI50 [7] was > 100 µM (inactive) and the GI50 [59] was > 100 µM (inactive). The GI50 [8] was 99.8 µM (inactive), the GI50 [9] was > 100 µM (inactive) and the GI50 [10] was > 100 µM (inactive). The GI50 [13] was over 100 µM, the GI50 [14] was > 100 µM (inactive) and the GI50 [15] was 9.79 µM (inactive). The GI50 [17] was 15 µM (inactive), the GI50 [18] was 37.7 µM (inactive) and the GI50 [19] was 32.7 µM (inactive). For the same molecule, the GI50 [20] was > 10 µM (inactive), the GI50 [21] was 8.71 µM (inactive) and the GI50 [23] was > 100 µM (inactive). The GI50 [24] was > 100 µM (inactive), the GI50 [25] was > 100 µM (inactive) and the GI50 [26] was > 100 µM (inactive). The GI50 [27] was > 100 µM (inactive), the GI50 [28] was > 100 µM (inactive) and the GI50 [29] was 79.4 µM (inactive). For the same molecule, the GI50 [30] was 7.89 µM (inactive), the GI50 [31] was 59 µM (inactive) and the GI50 [32] was 2.95 µM (inactive). For the same molecule, the GI50 [33] was > 100 µM (inactive), the GI50 [36] was 52.6 µM (inactive) and the GI50 [37] was > 100 µM (inactive). The GI50 [39] was > 100 µM (inactive), the GI50 [40] was 31.6 µM (inactive) and the GI50 [41] was 22.5 µM (inactive). The GI50 [42] was 35.2 µM (inactive), the GI50 [43] was > 100 µM (inactive) and the GI50 [44] was 40.3 µM (inactive). For the same molecule, the GI50 [45] was > 100 µM (inactive), the GI50 [46] was 20 µM (inactive) and the GI50 [47] was > 100 µM (inactive). The GI50 [48] was 34.4 µM (inactive), the GI50 [49] was 16.9 µM (inactive) and the GI50 [50] was 37.2 µM (inactive). The GI50 [52] was > 100 µM (inactive), the GI50 [53] was 77.6 µM (inactive) and the GI50 [54] was 50.1 µM (inactive). The GI50 [56] was > 100 µM (inactive), the GI50 [57] was > 100 µM (inactive) and the GI50 [58] was 28.6 µM (inactive).
